Assay results as given in patent US10023593B2, “ALK kinase inhibitor, and preparation method and uses thereof” (BEIJING PEARL BIOTECHNOLOGY LIMITED LIABILITY COMPANY, priority 2014, dated 2018).

Assays:
L1196M mutant ALK kinase = target: T1, L1196M mutant ALK kinase (Homo sapiens, UniProt Q9UM73, L1196M); experiment: HTRF KinEASE-TK assay, inhibitory activity on L1196M mutant ALK kinase; format: biochemical; conditions: L1196M mutant ALK 1 ng/μl, substrate 1 μM, ATP 5 μM, 30° C. 35 minutes, read-out: Inhibition on ALK kinases (L1196M mutant), IC50
T1 construct: purchased Sino-US Crown Bioscience, Inc. batch number ALKm_20110923
T1 sequence (Q9UM73 19-1620 L1196M): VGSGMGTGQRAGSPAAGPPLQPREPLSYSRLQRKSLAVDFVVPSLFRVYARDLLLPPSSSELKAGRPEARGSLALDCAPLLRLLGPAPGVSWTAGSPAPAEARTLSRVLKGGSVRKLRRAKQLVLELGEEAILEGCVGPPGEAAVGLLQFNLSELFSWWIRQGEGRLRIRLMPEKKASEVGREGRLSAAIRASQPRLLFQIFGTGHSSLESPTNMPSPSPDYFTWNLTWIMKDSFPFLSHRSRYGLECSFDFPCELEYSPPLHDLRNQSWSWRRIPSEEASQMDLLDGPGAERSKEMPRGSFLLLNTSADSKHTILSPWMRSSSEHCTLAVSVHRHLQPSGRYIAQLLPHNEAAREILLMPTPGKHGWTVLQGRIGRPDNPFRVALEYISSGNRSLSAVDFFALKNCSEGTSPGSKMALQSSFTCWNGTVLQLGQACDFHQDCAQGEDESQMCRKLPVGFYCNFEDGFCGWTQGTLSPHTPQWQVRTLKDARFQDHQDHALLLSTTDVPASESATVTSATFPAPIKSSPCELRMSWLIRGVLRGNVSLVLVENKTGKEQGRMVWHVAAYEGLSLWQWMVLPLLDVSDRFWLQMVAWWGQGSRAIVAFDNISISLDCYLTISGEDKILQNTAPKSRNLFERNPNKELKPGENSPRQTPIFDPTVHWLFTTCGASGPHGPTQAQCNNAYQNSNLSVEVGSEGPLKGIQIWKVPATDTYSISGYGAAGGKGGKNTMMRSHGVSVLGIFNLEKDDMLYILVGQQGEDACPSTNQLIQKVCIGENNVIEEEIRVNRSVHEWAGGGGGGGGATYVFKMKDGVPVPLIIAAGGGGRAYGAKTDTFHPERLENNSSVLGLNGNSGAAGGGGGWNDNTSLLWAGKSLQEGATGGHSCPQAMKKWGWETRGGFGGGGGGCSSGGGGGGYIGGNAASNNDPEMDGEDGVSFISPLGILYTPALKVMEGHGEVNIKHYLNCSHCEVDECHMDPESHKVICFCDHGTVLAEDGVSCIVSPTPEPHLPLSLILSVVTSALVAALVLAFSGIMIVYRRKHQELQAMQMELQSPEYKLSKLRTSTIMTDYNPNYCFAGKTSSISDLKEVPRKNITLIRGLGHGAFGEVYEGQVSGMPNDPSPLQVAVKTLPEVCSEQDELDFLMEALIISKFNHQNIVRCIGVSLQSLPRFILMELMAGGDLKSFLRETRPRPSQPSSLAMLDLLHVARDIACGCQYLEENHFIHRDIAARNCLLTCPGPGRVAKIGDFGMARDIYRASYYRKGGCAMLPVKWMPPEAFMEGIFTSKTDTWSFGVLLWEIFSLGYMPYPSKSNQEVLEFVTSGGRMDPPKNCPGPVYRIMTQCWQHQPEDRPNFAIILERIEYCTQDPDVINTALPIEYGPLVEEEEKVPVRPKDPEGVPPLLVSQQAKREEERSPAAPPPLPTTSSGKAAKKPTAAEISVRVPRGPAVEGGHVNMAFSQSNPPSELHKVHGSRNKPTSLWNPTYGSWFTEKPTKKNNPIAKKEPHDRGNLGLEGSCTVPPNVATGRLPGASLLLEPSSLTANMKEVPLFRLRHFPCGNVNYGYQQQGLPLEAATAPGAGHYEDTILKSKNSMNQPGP
Procedure, shortened: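 HTRF TK assay: mutant kinase 1 ng/μl, substrate 1 μM, ATP 5 μM, 5 mM MgCl2, 1 mM DTT, 1% DMSO, 35 min at 30 °C. 665/615 ratio read; inhibition normalised to no-compound and 10.4 μM LDK-378 controls; IC50 from curve fit.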

NCI-H2228 cell line = experiment: CellTiter-Glo cell proliferation inhibition on NCI-H2228 cell line; format: cell-based; conditions: Homo sapiens, NCI-H2228 cells, 5000 cells/well, 4 days drug treatment
Procedure, shortened: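 NCI-H2228 cells, 5000/well in RPMI-1640 + 10% FBS, treated with compounds 2 h after seeding (0.5% DMSO final) for 4 days at 37° C. Viability by CellTiter-Glo luminescence; inhibition relative to DMSO control, IC50 from curve fit.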

Row | SMILES | IC50 (L1196M mutant ALK kinase) [nM] | IC50 (NCI-H2228 cell line; NCI-H2228, 96 h) [nM] | IC50 (NCI-H2228 cell line; 96 h) [nM]
1 | Cc1cc(Nc2ncc(Cl)c(Nc3cn(C)nc3S(=O)(=O)C(C)C)n2)c(OC2CC2)cc1C1CCN(CCN(C)C)CC1 [Final product 146, 5-chloro-N^2-(2-cyclopropoxy-4-(1-(2-(dimethylamino)ethyl)piperidin-4-yl)-5-methylphenyl)-N^4-(3-(isopropylsulfonyl)-1-methyl-1H-pyrazol-4-yl)-pyrimidin-2,4-diamine] | 5 | – | 199
2 | Cc1cc(Nc2ncc(Cl)c(Nc3cn(C)nc3S(=O)(=O)C(C)C)n2)c(OC2CC2)cc1C1CCN(C(=O)C(F)(F)F)CC1 [Final product 161, 1-trifluoroacetyl-4-(4-(5-chloro-4-(3-(isopropylsulfonyl)-1-methyl-1H-pyrazol-4-amino)pyrimidin-2-amine)-5-cyclopropoxy-2-methylphenyl)piperidine] | 43 | 47 | –
3 | Cc1cc(Nc2ncc(Cl)c(Nc3cn(C)nc3S(=O)(=O)C(C)C)n2)c(OC2CC2)cc1C1CCN(C(=O)C2CC2)CC1 [Final product 162, 1-cyclopropylformyl-4-(4-(5-chloro-4-(3-(isopropylsulfonyl)-1-methyl-1H-pyrazol-4-amino)pyrimidin-2-amine)-5-cyclopropoxy-2-methylphenyl)piperidine] | 21 | 34 | –
4 | Cc1cc(Nc2ncc(Cl)c(Nc3cn(C)nc3S(=O)(=O)C(C)C)n2)c(OC2CC2)cc1C1CCN(C(=O)C(C)(C)C)CC1 [Final product 164, 1-pivaloyl-4-(4-(5-chloro-4-(3-(isopropylsulfonyl)-1-methyl-1H-pyrazol-4-amino)pyrimidin-2-amine)-5-cyclopropoxy-2-methylphenyl)piperidine] | 56 | 87 | –
5 | Cc1cc(Nc2ncc(Cl)c(Nc3cn(C)nc3S(=O)(=O)C(C)C)n2)c(OC(C)C)cc1C1CN(S(C)(=O)=O)C1 [Final product 168] | 25 | 440 | –
6 | Cc1cc(Nc2ncc(Cl)c(Nc3cn(C)nc3S(=O)(=O)C(C)C)n2)c(OC2CC2)cc1C1CN(S(C)(=O)=O)C1 [Final product 170] | 95 | 381 | –
7 | Cc1cc(Nc2ncc(Cl)c(Nc3cn(C)nc3S(=O)(=O)CC(C)C)n2)c(OC2CC2)cc1C1CN(S(C)(=O)=O)C1 [Final product 171] | 156 | 251 | –
8 | CC(C)S(=O)(=O)c1nn(C2CC2)cc1Nc1nc(Nc2ccc(C3CCN(S(C)(=O)=O)CC3)cc2OC2CC2)ncc1Cl [Final product 173] | 28 | 34 | –
9 | CCN(CC)[C@H]1CC[C@H](c2cc(OC3CC3)c(Nc3ncc(Cl)c(Nc4cn(C)nc4S(=O)(=O)CC(C)C)n3)cc2C)CC1 [Final product 178] | 17 | 101 | –
10 | Cc1cc(Nc2ncc(Cl)c(Nc3cn(C)nc3S(=O)(=O)CC(C)C)n2)c(OC2CC2)cc1[C@H]1CC[C@H](NC2CC2)CC1 [Final product 180] | 40 | 127 | –
11 | Cc1cc(Nc2ncc(Cl)c(Nc3cn(C)nc3S(=O)(=O)CC(C)C)n2)c(OC2CC2)cc1[C@H]1CC[C@H](NC(C)C)CC1 [Final product 182] | 22 | 89 | –
12 | Cc1cc(Nc2ncc(Cl)c(Nc3cn(C)nc3S(=O)(=O)C(C)C)n2)c(OC2CC2)cc1[C@H]1CC[C@H](NC2CC2)CC1 [Final product 196] | 18 | 88 | –
13 | CC(=O)N1CCN([C@H]2CC[C@H](c3cc(OC4CC4)c(Nc4ncc(Cl)c(Nc5cn(C)nc5S(=O)(=O)C(C)C)n4)cc3C)CC2)CC1 [Final product 204] | 18 | 76 | –
14 | Cc1cc(Nc2ncc(Cl)c(Nc3cn(C)nc3S(=O)(=O)C(C)C)n2)c(OC2CC2)cc1C1=C(Cl)CN(C)CC1 [Final product 208, 5-chloro-N^2-[4-(5-chloro-1-methyl-1,2,3,6-tetrahydro-pyridin-4-yl)-2-cyclopropoxy-5-methyl-phenyl]-N^4-[1-methyl-3-(isopropylsulfonyl)-1H-pyrazol-4-yl]-pyrimidin-2,4-diamine] | 36 | 152 | –

The remaining compounds from weak to strong by IC50 (L1196M mutant ALK kinase), led by results:

Row | IC50 (L1196M mutant ALK kinase) [nM] | IC50 (NCI-H2228 cell line; NCI-H2228, 96 h) [nM] | SMILES | IC50 (NCI-H2228 cell line; 96 h) [nM]
15 | 11 | 103 | Cc1cc(Nc2ncc(Cl)c(Nc3cn(C)nc3S(=O)(=O)CC(C)C)n2)c(OC2CC2)cc1C1CCN(CCO)CC1 [Final product 137] | –
16 | 11 | 142 | Cc1cc(Nc2ncc(Cl)c(Nc3cn(C)nc3S(=O)(=O)C(C)C)n2)c(OC2CC2)cc1C1CCN(C2CC2)CC1 [Final product 157] | –
17 | 11 | 59 | Cc1cc(Nc2ncc(Cl)c(Nc3cn(C)nc3S(=O)(=O)C(C)C)n2)c(OC2CC2)cc1C1CCN(S(C)(=O)=O)CC1 [Final product 167, 5-chloro-N^2-(2-cyclopropoxy-5-methyl-4-(1-methanesulfonyl-piperidin-4-yl)-phenyl)-N^4-(3-(isopropylsulfonyl)-1-methyl-1H-pyrazol-4-yl)pyrimidin-2,4-diamine] | –
18 | 10 | 44 | Cc1cc(Nc2ncc(Cl)c(Nc3cn(C)nc3S(=O)(=O)C(C)C)n2)c(OC2CC2)cc1C1CCN(C2COC2)CC1 [Final product 156] | –
19 | 9 | 86 | Cc1cc(Nc2ncc(Cl)c(Nc3cn(C)nc3S(=O)(=O)C(C)C)n2)c(OC(C)C)cc1C1CCN(C(C)(C)CO)CC1 [Final product 152] | –
20 | 9 | 43 | Cc1cc(Nc2ncc(Cl)c(Nc3cn(C)nc3S(=O)(=O)C(C)C)n2)c(OC2CC2)cc1C1CCN(C=O)CC1 [Final product 159, 4-(4-(5-chloro-4-(3-(isopropylsulfonyl)-1-methyl-1H-pyrazol-4-amino)pyrimidin-2-amino)-5-cyclopropoxy-2-methylphenyl)piperidin-1-formaldehyde] | –
21 | 9 | 35 | CC(=O)N1CCC(c2cc(OC3CC3)c(Nc3ncc(Cl)c(Nc4cn(C)nc4S(=O)(=O)C(C)C)n3)cc2C)CC1 [Final product 160, 1-acetyl-4-(4-(5-chloro-4-(3-(isopropylsulfonyl)-1-methyl-1H-pyrazol-4-amino)pyrimidin-2-amine)-5-cyclopropoxy-2-methylphenyl)piperidine] | –
22 | 9 | 111 | CC(C)S(=O)(=O)c1nn(C)cc1Nc1nc(Nc2ccc(C3CCN(S(C)(=O)=O)C3)cc2OC2CC2)ncc1Cl (stereo not shown) [Final product 172] | –
23 | 9 | 54 | Cc1cc(Nc2ncc(Cl)c(Nc3cn(C)nc3S(=O)(=O)C(C)C)n2)c(OC2CC2)cc1[C@H]1CC[C@H](NC(C)C)CC1 [Final product 198] | –
24 | 8 | 60 | Cc1cc(Nc2ncc(Cl)c(Nc3cn(C)nc3S(=O)(=O)C(C)C)n2)c(OC2CCC2)cc1C1CCN(CCO)CC1 [Final product 138] | –
25 | 8 | 89 | Cc1cc(Nc2ncc(Cl)c(Nc3cn(C)nc3S(=O)(=O)C(C)C)n2)c(OC(C)C)cc1[C@H]1CC[C@H](NC(C)C)CC1 [Final product 188] | –
26 | 7 | 76 | Cc1cc(Nc2ncc(Cl)c(Nc3cn(C)nc3S(=O)(=O)C(C)C)n2)c(OC2CC2)cc1[C@H]1CC[C@@H](N(C)C)CC1 [Final product 189] | –
27 | 6 | 42 | Cc1cc(Nc2ncc(Cl)c(Nc3cn(C)nc3S(=O)(=O)C(C)C)n2)c(OC2CC2)cc1C1CCN(C(=O)CC#N)CC1 [Final product 166, 1-cyano acetyl-4-(4-(5-chloro-4-(3-(isopropylsulfonyl)-1-methyl-1H-pyrazol-4-amino)pyrimidin-2-amine)-5-cyclopropoxy-2-methylphenyl)piperidine] | –
28 | 6 | 82 | CCNC(=O)N1CCC(c2cc(OC3CC3)c(Nc3ncc(Cl)c(Nc4cn(C)nc4S(=O)(=O)C(C)C)n3)cc2C)CC1 [Final product 174, 4-(4-(5-chloro-4-(3-(isopropylsulfonyl)-1-methyl-1H-pyrazol-4-amine)pyrimidin-2-amine)-5-cyclopropoxy-2-methyl-phenyl)-N-ethyl-piperidin-1-carboxamide] | –
29 | 3 | 35 | Cc1cc(Nc2ncc(Cl)c(Nc3cn(C)nc3S(=O)(=O)C(C)C)n2)c(OC2CC2)cc1C1CCN(C(=O)CN(C)C)CC1 [Final product 165, 1-(2-dimethylamino)acetyl-4-(4-(5-chloro-4-(3-(isopropylsulfonyl)-1-methyl-1H-pyrazol-4-amino)pyrimidin-2-amino)-5-cyclopropoxy-2-methylphenyl)piperidine] | –
